Reference: patent publication US8158656B2, “2-indolinone derivatives as multi-target protein kinase inhibitors and histone deacetylase inhibitors” (Shenzhen Chipscreen Biosciences Ltd., priority 2008, dated 2012)

Experiments:
HCT-8 = test: Tumor cell proliferation (MTS), HCT-8; format: cell-based; conditions: Homo sapiens, HCT-8, 72 hours
Procedure: (§1) Measurement of in vivo cell proliferation:
(§2) Tumor cells were trypsinized and plated into 96-well plates at 3,000 per well and incubated in complete medium with 10% FBS for 24 hours. Compounds were added over a final concentration range of 100 μmol/L to 100 nmol/L in 0.1% DMSO and incubated for 72 hours in complete medium. The effects on proliferation were determined by addition of MTS reagent (Promega) according to the instruction, incubation for 2 hours at 37° C. in CO2 incubator, and record the absorbance at 490 nm using an ELISA plate reader.

Flt3 = biological target: T1, Flt3 (Homo sapiens, UniProt P36888); test: Flt3 kinase ELISA bioassay; format: biochemical; conditions: ELISA kinase assay, 200 μM ATP
T1 construct: purchased Cell Signaling
T1 sequence (P36888 27-993): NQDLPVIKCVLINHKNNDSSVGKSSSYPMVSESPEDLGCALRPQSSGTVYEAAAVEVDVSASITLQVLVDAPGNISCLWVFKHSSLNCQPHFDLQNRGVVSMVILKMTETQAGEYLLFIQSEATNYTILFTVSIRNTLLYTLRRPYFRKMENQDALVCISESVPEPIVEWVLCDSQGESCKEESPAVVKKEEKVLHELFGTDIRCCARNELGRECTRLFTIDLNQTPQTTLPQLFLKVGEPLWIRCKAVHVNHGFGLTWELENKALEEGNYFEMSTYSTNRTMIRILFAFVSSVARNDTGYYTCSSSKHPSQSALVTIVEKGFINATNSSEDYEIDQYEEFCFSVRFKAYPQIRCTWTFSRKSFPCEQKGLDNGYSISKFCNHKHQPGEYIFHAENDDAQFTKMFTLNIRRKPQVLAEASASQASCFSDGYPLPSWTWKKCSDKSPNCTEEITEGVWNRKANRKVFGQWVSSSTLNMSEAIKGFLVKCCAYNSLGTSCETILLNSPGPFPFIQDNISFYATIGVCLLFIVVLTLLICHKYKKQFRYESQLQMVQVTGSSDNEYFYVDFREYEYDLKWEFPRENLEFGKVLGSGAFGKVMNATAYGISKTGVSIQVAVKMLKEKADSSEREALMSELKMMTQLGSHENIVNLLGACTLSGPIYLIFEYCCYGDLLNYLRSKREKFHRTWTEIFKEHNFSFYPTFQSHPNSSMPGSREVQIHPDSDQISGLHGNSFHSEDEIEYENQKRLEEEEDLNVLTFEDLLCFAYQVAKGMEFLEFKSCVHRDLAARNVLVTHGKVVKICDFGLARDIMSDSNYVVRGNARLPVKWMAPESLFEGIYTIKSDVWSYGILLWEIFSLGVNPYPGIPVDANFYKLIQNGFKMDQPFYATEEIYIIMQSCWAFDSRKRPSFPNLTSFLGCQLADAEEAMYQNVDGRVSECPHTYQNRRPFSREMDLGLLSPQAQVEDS
Procedure: This assay is used to measure in vitro kinase activity of Flt3 in an ELISA assay.
• 1. Streptavidin coated, 96-well, white plate • 2. Phospho-Tyrosine Monoclonal Antibody (P-Tyr-100) (Cell Signaling) • 3. HRP-labeled anti-mouse IgG (Upstate) • 4. HTScan™ Tyrosine Kinase Buffer (4×) • 5. DTT (1000×. 1.25 M) • 6. ATP (10 mM) • 7. KDR (Tyr996) Biotinylated Peptide Substrate (Cell Signaling) • 8. Flt3 Kinase (recombinant, human) (Cell Signaling) • 9. Wash Buffer: 1× PBS, 0.05% Tween-20 (PBS/T) • 10. Bovine Serum Albumin (BSA) • 11. Stop Buffer: 50 mM EDTA pH 8 • 12. Enhanced chemiluminescence (ECL) (Amersham) Procedure for performing the assay in 96-well plate: • 1. Add 10 μl 10 mM ATP to 1.25 ml 6 μM substrate peptide. Dilute the mixture with dH20 to 2.5 ml to make 2× ATP/substrate cocktail ([ATP]=[…], [substrate]=3 μm). • 2. Immediately transfer enzyme from −80° C. to ice. Allow enzyme to thaw on ice. • 3. Microcentrifuge briefly at 4° C. to bring liquid to the bottom of the vial. Return immediately to ice. • 4. Add 10 μl of DTT (1.25 M) to 2.5 ml of 4× HTScan™ Tyrosine Kinase Buffer (240 mM HEPES pH 7.5, 20 mM MgCl2, 20 mM MnCl2, 12 μM Na3VO4) to make DTT/Kinase buffer. • 5. Transfer 1.25 ml of DTT/Kinase buffer to enzyme tube to make 4× reaction cocktail ([enzyme]=4 ng/μL in 4× reaction cocktail). • 6. Incubate 12.5 μl of the 4× reaction cocktail with 12.5 μl/well of prediluted compound of interest (usually around 10 μM) for 5 minutes at room temperature. • 7. Add 25 μl of 2× ATP/substrate cocktail to 25 μl/well preincubated reaction cocktail/compound. Final Assay Conditions for a 50 μl Reaction: • 60 mM HEPES pH 7.5 • 5 mM MgCl2 • 5 mM MnCl2 • 3 μM Na3VO4 • 1.25 mM DTT • […] • 1.5 μM peptide • 10 units Flt3 Kinase • 8. Incubate reaction plate at room temperature for 30 minutes. • 9. Add 50 μl/well Stop Buffer (50 mM EDTA, pH 8) to stop the reaction. • 10. Transfer 50 μl of each reaction and 50 μl dH2O/well to a 96-well streptavidincoated plate and incubate at room temperature for 60 minutes. • 11. Wash three times with 200 μl/well PBS/T • 12. Dilute primary antibody, Phospho-Tyrosine Monoclonal Antibody (P-Tyr-100), 1:1000 in PBS/T with 1% BSA. Add 100 μl/well of primary antibody. • 13. Incubate at room temperature for 60 minutes. • 14. Wash three times with 200 μl/well PBS/T • 15. Dilute HRP labeled anti-mouse IgG 1:500 in PBS/T with 1% BSA. Add 100 μl/well diluted antibody. • 16. Incubate at room temperature for 30 minutes. • 17. Wash five times with 200 μl/well PBS/T. • 18. Add 100 μl/well ECL Solution. • 19. Detect luminescence with appropriate Plate Reader.

A549 = test: Tumor cell proliferation (MTS), A549; format: cell-based; conditions: Homo sapiens, A549, 72 hours
Procedure: as §1, §2

Jurkat = test: Tumor cell proliferation (MTS), Jurkat; format: cell-based; conditions: Homo sapiens, 72 hours
Procedure: as §1, §2

[1] = system: Mo7e cells (SCF dependent); test: c-Kit ligand (SCF) dependent cell proliferation; format: cell-based; conditions: SCF 50 ng/ml, 72 hours, MTS
Procedure: SCF dependent cell proliferation:
Mo7e cells (SCF dependent) were plated into 96-well plates at 15000 per well and incubated in 1640 medium with 10% FBS and SCF (50 ng/ml) for 24 hours. Compounds were added and incubated for 72 hours at 37° C. in CO2 incubator. The effects on proliferation were determined by addition of MTS reagent (Promega) according to the instruction, incubation for 2 hours at 37° C. in CO2 incubator, and record the absorbance at 490 nm using an ELISA plate reader.

Cc1[nH]c(/C=N/N=C2\C(=O)Nc3ccc(F)cc32)c(C)c1C(=O)NCCCCNc1ccc(C(=O)Nc2ccccc2N)cn1 [Example 10, N-(2-aminophenyl)-6-(4-(2-(((5-fluoro-2-oxoindolin-3-ylidene)hydrazono)-methyl)-3,5-dimethyl-1H-pyrrole-4-carboxamido)butylamino)nicotinamide]
GI50 (HCT-8): > 60 µM
IC50 (Flt3): > 1000 nM
GI50 (A549): > 60 µM
GI50 (Jurkat): > 60 µM
GI50 [1]: > 1000 nM
